# Measured values taken from ChEMBL document CHEMBL6103670, “Development of Ethyl-Hydrazide-Based Selective Histone Deacetylase 6 (HDAC6) PROTACs” (ACS Med Chem Lett, 2025).
# Legend:
# [1] = Antiproliferative activity against human MM1.S cells assessed as cell viability at 50 uM incubated for 72 hrs by CellTiter-Glo assay relative to control; format: toxicity, cell-based; settings: read-out: Activity
# [2] = target: Histone deacetylase 3/Nuclear receptor corepressor 2 (HDAC3/NCoR2) (Homo sapiens, UniProt O15379); experiment: Inhibition of C-terminal His tagged human recombinant HDAC3 (1 to 428 end residues)/N-terminal GST-tagged human NcoR2 expressed in Sf9 insect cells using Z-Lys(Ac)-AMC as substrate preincubated for 60 mins followed by substrate addition and measured after 90 mins by fluorescence based microplate reader analysis
# [3] = Antiproliferative activity against human MM1.S cells assessed as cell viability incubated for 72 hrs by CellTiter-Glo assay; format: toxicity, cell-based
# MM1.S = experiment: Induction of degradation of HDAC6 in human MM1.S cells at 0.5 uM incubated for 24 hrs by immunoblot analysis relative to control; format: cell-based
# Histone deacetylase 3/Nuclear receptor corepressor 2 (HDAC3/NCoR2), sequence (O15379 whole entry): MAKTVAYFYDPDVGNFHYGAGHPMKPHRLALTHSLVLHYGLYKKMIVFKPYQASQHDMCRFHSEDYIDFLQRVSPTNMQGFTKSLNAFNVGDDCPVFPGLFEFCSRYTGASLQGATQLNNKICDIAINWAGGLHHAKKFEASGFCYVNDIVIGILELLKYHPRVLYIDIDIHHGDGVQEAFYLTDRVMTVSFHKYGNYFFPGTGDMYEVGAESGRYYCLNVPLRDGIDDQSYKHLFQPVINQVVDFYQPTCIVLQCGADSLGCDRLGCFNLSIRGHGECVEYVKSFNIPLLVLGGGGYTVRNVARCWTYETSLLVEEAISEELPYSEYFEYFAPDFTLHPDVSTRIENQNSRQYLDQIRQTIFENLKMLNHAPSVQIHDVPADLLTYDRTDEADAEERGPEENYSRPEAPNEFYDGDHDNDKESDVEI
# Histone deacetylase 3/Nuclear receptor corepressor 2 (HDAC3/NCoR2), sequence (Q9Y618 whole entry, further chain): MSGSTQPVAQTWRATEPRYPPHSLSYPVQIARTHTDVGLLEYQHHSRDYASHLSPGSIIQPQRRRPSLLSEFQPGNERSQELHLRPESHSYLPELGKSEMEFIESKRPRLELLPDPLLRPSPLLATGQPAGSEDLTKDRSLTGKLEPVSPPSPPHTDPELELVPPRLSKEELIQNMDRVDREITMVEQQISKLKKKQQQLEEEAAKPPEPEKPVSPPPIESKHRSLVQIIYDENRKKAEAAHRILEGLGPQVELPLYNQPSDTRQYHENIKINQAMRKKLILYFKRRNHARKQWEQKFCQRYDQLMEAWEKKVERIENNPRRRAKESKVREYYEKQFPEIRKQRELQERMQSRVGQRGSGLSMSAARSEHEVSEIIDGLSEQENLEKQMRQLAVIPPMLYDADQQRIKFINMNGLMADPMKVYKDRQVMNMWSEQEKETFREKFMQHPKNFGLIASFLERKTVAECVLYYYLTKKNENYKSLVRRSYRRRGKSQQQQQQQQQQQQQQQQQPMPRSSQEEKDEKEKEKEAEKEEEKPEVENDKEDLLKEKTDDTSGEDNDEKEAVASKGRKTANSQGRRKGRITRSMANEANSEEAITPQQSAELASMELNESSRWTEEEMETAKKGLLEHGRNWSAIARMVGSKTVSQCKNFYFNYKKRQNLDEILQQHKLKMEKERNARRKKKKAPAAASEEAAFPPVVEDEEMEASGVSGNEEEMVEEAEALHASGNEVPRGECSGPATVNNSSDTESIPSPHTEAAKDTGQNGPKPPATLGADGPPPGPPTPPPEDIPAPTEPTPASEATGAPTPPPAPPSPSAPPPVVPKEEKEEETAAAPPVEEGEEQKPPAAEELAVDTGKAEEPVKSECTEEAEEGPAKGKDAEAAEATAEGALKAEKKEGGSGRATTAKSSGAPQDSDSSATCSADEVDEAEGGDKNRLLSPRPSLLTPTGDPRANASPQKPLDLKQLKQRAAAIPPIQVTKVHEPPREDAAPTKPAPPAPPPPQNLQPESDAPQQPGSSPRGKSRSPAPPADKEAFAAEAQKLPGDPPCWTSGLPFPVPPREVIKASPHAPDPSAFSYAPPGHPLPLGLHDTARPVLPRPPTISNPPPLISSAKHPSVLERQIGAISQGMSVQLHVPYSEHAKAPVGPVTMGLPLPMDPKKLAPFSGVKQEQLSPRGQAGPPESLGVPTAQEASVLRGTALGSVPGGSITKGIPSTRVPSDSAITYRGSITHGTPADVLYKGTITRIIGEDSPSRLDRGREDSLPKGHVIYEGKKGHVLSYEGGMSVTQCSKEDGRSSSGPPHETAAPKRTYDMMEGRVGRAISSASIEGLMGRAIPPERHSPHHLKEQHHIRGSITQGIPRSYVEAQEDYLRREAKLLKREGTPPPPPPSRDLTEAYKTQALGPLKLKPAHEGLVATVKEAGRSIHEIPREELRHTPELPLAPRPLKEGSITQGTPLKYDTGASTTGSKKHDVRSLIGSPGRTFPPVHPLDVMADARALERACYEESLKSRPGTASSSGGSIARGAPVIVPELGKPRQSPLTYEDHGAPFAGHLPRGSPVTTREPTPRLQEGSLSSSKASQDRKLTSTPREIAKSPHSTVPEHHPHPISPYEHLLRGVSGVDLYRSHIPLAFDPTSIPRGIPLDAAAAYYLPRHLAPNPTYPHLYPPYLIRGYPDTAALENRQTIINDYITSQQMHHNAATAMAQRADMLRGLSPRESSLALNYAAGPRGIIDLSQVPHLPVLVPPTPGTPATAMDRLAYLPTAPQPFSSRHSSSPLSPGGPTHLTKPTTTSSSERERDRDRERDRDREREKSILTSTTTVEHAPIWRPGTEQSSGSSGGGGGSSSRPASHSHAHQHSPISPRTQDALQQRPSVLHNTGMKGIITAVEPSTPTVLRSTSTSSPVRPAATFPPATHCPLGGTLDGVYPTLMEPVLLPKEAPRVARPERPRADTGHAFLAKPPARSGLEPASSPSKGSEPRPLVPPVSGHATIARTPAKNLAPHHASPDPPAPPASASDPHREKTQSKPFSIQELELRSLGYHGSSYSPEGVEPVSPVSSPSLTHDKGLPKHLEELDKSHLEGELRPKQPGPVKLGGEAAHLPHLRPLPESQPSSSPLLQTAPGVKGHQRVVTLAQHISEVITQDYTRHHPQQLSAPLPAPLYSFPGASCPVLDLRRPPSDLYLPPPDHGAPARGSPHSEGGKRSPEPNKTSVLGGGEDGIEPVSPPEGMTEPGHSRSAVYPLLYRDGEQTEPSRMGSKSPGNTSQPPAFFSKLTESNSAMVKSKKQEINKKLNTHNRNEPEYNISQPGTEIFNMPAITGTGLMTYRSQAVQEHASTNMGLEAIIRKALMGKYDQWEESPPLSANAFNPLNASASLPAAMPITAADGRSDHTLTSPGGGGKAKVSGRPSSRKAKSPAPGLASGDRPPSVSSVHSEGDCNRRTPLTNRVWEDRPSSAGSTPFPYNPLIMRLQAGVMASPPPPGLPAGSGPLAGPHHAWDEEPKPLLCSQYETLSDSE
Compound,"viability at 72 h, 50 µM [1] [%]",IC50 [2] [nM],IC50 at 72 h [3] [µM],Activity (MM1.S) [%]
CCNNC(=O)c1ccc(CNC(=O)c2ccc(OCc3cn(CCCCCCNc4cc5c(cc4F)C(=O)N(C4CCC(=O)NC4=O)C5=O)nn3)cc2)cc1 (configuration not stated),> 50,611,–,–
CCNNC(=O)c1ccc(CNC(=O)c2ccc(OCc3cn(CCOCCC(=O)N[C@H](C(=O)N4C[C@H](O)C[C@H]4C(=O)NCc4ccc(-c5scnc5C)cc4)C(C)(C)C)nn3)cc2)cc1,> 50,244,–,–
CCNNC(=O)c1ccc(CNC(=O)c2ccc(OCc3cn(CCOCCNc4cc5c(cc4F)C(=O)N(C4CCC(=O)NC4=O)C5=O)nn3)cc2)cc1 (configuration not stated),–,332,24.9,–
CCNNC(=O)c1ccc(CNC(=O)c2ccc(OCc3cn(CCCCCCNc4cc5c(cc4F)C(=O)N(C4CCC(=O)N(C)C4=O)C5=O)nn3)cc2)cc1 (configuration not stated),> 50,537,–,–
O=C(CCCCCCC(=O)Nc1ccccc1)NO [VORINOSTAT],–,–,0.8,–
CCNNC(=O)c1ccc(CNC(=O)c2ccc(NC(=O)CCCCCCC(=O)N[C@H](C(=O)N3C[C@H](O)C[C@H]3C(=O)NCc3ccc(-c4scnc4C)cc3)C(C)(C)C)cc2)cc1,> 50,126,–,–
CCNNC(=O)c1ccc(CNC(=O)c2ccc(NC(=O)CCCCCCCNc3cc4c(cc3F)C(=O)N(C3CCC(=O)NC3=O)C4=O)cc2)cc1 (configuration not stated),–,238,18.4,–
O=C(CCCCCCNC(=O)c1ccc(NC(=O)CCCCCCCNC(=O)COc2cccc3c2C(=O)N(C2CCC(=O)NC2=O)C3=O)cc1)NO (configuration not stated),> 50,164,–,94.5
CCNNC(=O)c1ccc(CNC(=O)c2ccc(NC(=O)COCCOCCNc3cc4c(cc3F)C(=O)N(C3CCC(=O)NC3=O)C4=O)cc2)cc1 (configuration not stated),> 50,378,–,–
CCNNC(=O)c1ccc(CNC(=O)c2ccc(OCc3cn(CCCCCC(=O)N[C@H](C(=O)N4C[C@H](O)C[C@H]4C(=O)NCc4ccc(-c5scnc5C)cc4)C(C)(C)C)nn3)cc2)cc1,> 50,417,–,–
CCNNC(=O)c1ccc(CNC(=O)c2ccc(NC(=O)COCCOCC(=O)N[C@H](C(=O)N3C[C@H](O)C[C@H]3C(=O)NCc3ccc(-c4scnc4C)cc3)C(C)(C)C)cc2)cc1,> 50,729,–,–
